According to patent publication US7193044B1, “Compounds and methods for regulating apoptosis, and methods of making and screening for compounds that regulate apoptosis” (Immunogen, Inc., priority 2000, dated 2007):
Entries after “also recorded” stand apart in the source; their conditions may differ. Non-standard residues stand in square brackets, D forms with d. No end group written: not given here. pS = N[C@@H](COP(=O)(O)O)C(=O)O

Tests used:
[1] = tested on: BAD Ser155 phosphorylation in HeLa cells; test: BAD phosphorylation in HeLa cells (western blot band-shift / anti-phospho-Ser155 antibody); format: cell-based, human; conditions: for induction of band-shift (Ser155 phosphorylation) of HA-BAD S112A/S136A: transfected HeLa cells treated with the agent; for Ser155 phosphorylation following growth factor stimulation: results not shown
Procedure: A mammalian expression vector encoding mutant HA-BAD S155A, derived from the shorter murine BAD of SEQ ID NO:3, was constructed. HA-BAD S155A has an amino acid sequence wherein the serine at a position corresponding to Ser155 is substituted with alanine. A western blot was performed on WCL prepared from cells expressing the shorter murine BAD (SEQ ID NO:3), HA-BAD S112A, HA-BAD S136A, or HA-BAD S155A, and probed with anti-HA antibody.
A western blot analysis, probed with anti-HA antibody, was performed on lysates produced from the Forskolin treated and untreated (control) cells to determine whether Forskolin could induce the phosphorylation BAD or mutant BAD.
HeLa cells transiently expressing HA-BAD, HA-BAD S155A, HA-BAD S112A/S136A, or HA-BAD S112A/S136A/S155A were treated with Forskolin or a buffer control.
The HA-BAD S112A/S136A double mutant was transiently expressed in HeLa cells, and transfected cell cultures were treated with each of the GPCR ligands, individually and as a group. A western blot analysis, probed with anti-HA antibody, was performed on lysates produced from the treated and untreated (negative control) cells. […] Forskolin (FK) and no treatment (−) were positive and negative controls, respectively (FIG. 6(a), […], respectively).
Non-transfected HeLa cells were treated with Forskolin or L-epinephrine, followed by western blot analysis of cell lysates using anti-BAD antibodies.
Transformants were treated with L-epinephrine, then lysed and subjected to anti-HA western blot analysis.
(§1) To further test whether phosphorylation of Ser155 is dependent on the PI 3-kinase/Akt pathway, HeLa cells were transfected with the mutant HA-BAD S155A and pretreated with Wortmannin, an inhibitor of PI 3-kinase. These cells were then stimulated with epidermal growth factor (EGF), lysed and analyzed by western blot analysis.
For immunoprecipitation of all HA-BAD species, 1 μg of the anti-HA antibody was added to the cell lysates, and incubated at 4° C. for one hour. Protein G agarose (Pierce) was then added (50 μl/fraction of 50% slurry) and followed by a one hour incubation at 4° C. Beads were washed with RIPA buffer, boiled in loading buffer (2% SDS, 10% glycerol, 5% β-ME, 60 mM Tris, pH 6.8, 0.002% Bromophenol Blue) and loaded onto polyacrylamide gels. After electrophoresis, proteins were transferred to nitrocellulose membranes, and blots blocked in western wash buffer (40 mM Tris, pH 8.0, 150 mM NaCl, 0.2% NP-40) with 5% BSA for one hour at room temperature. Blots were incubated with primary antibody diluted in western wash buffer with 3% BSA at room temperature for 1–2 hours, washed with western wash buffer and incubated with secondary HRP-coupled antibody diluted in western wash buffer with 1.5% BSA, and washed extensively. Polypeptides were detected with the ECL chemiluminescence according to the manufacturers instructions (Amersham).

Akt = Akt activation in HeLa cells (anti-phospho-S473 Akt western blot); format: cell-based, human; conditions: serum-starved HeLa cells, pretreatment then EGF
From the text: FIG. 10(B) is a series of western blots. Serum-starved HeLa cells expressing HA-BAD S155A, were pretreated with a buffer control (lanes 1 and 2), AG1478 (“AG”) (lane 3), Wortmannin (“Wm”) (lane 4), or H89 (lane 5). The cell cultures were then stimulated with a buffer control (lane 1) or EGF (lanes 2–5). Whole cell lysates were made from the cultures and the proteins were separated by SDS-PAGE. Blots were probed with either an anti-activated EGF receptor antibody (“activated EGFR”) (panel A), an anti-phospho-S473 Akt antibody (“pS473 Akt”) (panel B), or an anti-phospho-S155 BAD antibody (“pS155 BAD”) (panel D). Reblots were probed with either an anti-Akt antibody (“Akt”) (panel C) or an anti-HA BAD antibody (“HA-BAD”) (panel E).
as §1

BAD phosphorylation = BAD phosphorylation (test system not specified)
From the text: Similarly, inhibitors and activators of protein kinases are known and can be used as therapeutic agents (see, e.g., Levitski, 1994). […] It is preferred that the inhibitors and activators have selective actions on the kinase(s) acting upon the BAD, or fragment of BAD, of the present invention. […] Alternatively, in vivo testing could be done using a number of experimental approaches, and one example, as reported herein, utilizes the endogenous phosphorylation of BAD upon re-addition of IL-3 after withdrawal for two hours. Such standard testing systems could be used to test candidate compounds as inhibitors or activators of BAD phosphorylation.

GST-Bcl-XL = GST-Bcl-XL (Homo sapiens, UniProt Q07817); test: In vitro competition binding assay (BH3 peptides blocking GST-Bcl-XL binding to immobilized BAK BH3 peptide, ELISA)
GST-Bcl-XL, sequence (Q07817 whole entry, the tested form may be a part): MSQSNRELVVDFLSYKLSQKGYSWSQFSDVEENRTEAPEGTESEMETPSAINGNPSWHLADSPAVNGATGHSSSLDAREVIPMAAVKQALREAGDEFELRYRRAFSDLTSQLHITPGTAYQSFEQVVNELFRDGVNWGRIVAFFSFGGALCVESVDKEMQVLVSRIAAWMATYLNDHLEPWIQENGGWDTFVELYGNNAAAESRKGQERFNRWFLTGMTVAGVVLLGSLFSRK
Procedure: FIG. 3(B) is a graphical representation of the results of an in vitro competition binding assay. Recombinant GST-Bcl-XL was incubated with a BAD BH3 peptide (residues 143–168 of SEQ ID NO: 2) phosphorylated on Ser155 (“BAD BH3-P”), a BAD BH3 peptide (residues 143–168 of SEQ ID NO: 2) unphosphorylated on Ser155 (“BAD BH3”), or a BAK BH3 peptide (residues 71–89; residues 1–20 of SEQ ID NO: 5) as a positive control, at the indicated concentrations. The reaction mixtures were then added to microtiter plates pre-coated with BAK BH3 peptide. The amount of bound GST-Bcl-XL was determined by ELISA using an anti-GST primary antibody and a horse-radish peroxidase-conjugated anti-mouse IgG secondary antibody with ABTS as substrate.
Whether the addition of a phosphate group on BAD Ser155 interferes with this interaction was tested by measuring the affinity of BAD BH3 peptides for Bcl-XL in an in vitro competition binding assay. Synthetic BAD BH3 peptide encompassing BAD residues 143 to 168, was incubated with recombinant GST-Bcl-XL at the indicated concentrations (FIG. 3(b)). The affinity of the BAD BH3 peptide for GST-Bcl-XL was measured as the ability of the peptide to block subsequent binding of GST-Bcl-XL to a BAK BH3 peptide when the reacted mixture was added to a microtiter plate pre-immobilized with a BAK BH3 peptide, as detected by ELISA (triplicate samples, +/−standard deviation). […]

[2] = tested on: BAD phosphorylation in Rat-1 cells; test: BAD phosphorylation in Rat-1 cells (western blot band-shift / anti-phospho-Ser155 antibody); format: cell-based; conditions: for induction of band-shift of HA-BAD S112A/S136A: transfected Rat-1 fibroblasts
From the text: In the absence of a phospho-Ser155 antibody, it was difficult to conclude that this band-shift was solely the result of the phosphorylation of Ser155. However, it appeared that this response was at least primarily due to the phosphorylation at this site. This was based on the combined evidence, both in vitro and in cells, as described above (FIGS. 1, 2 and 4–7) and the fact that Ser155 is the only site of BAD homologous to the substrate consensus sequence of PKA.
Whether the BAD Ser155 kinase, PKA, is also activated by growth factors, and if so, whether such activation is PI 3-kinase dependent, was investigated. […] Cell lysates were analyzed via western blot analysis, probed using anti-HA antibody. […] However, the magnitude of phosphorylation was weaker and may be more transient, than the effect of Forskolin (FIG. 9(a)). Of note, Ser155 phosphorylation following IGF-1, EGF, or PDGF stimulation was not detected in HeLa cells (results not shown).
It has been documented that Akt kinase activity, the serine kinase shown to phosphorylate BAD Ser136, is induced by growth factors and is dependent on PI 3-kinase activation (Datta et al., 1997; del Peso et al., 1997). In related experiments, Rat-1 cells were pretreated with either the PKA inhibitor H89, or the PI 3-kinase inhibitor Wortmannin (available, e.g., from Sigma, St. Louis, Mo.), followed by stimulation with Forskolin (also available from Sigma) or PDGF. […] This indicated the shift was PKA dependent (FIG. 9(b), lower panel, compare lanes 5 and 6). […] It therefore presumably had no effect on PDGF-induced activation of PI 3-kinase.
To examine whether endogenous BAD is phosphorylated on Ser155 in response to growth factors, serum-starved Rat-1 fibroblasts were stimulated with PDGF. Whole cell lysates were prepared and endogenous BAD was immunoprecipitated. Proteins were separated by SDS-PAGE, and Ser155 phosphorylation was analyzed by Western blot using the phospho-S155 antibody and an anti-BAD antibody.

COc1cc2ncnc(Nc3cccc(Cl)c3)c2cc1OC [AG1478, reference compound]
inhibition of EGF-induced phosphorylation of BAD on Ser155 ([1]; serum-starved HeLa cells transfected with HA-BAD S155A (so in the source), pretreatment then EGF, anti-phospho-S155 blot): blocked the phosphorylation of both
effect on EGF-induced activation/phosphorylation of endogenous Akt (Akt): blocked the phosphorylation of both

CNC[C@H](O)c1ccc(O)c(O)c1 [L-epinephrine, reference compound]
induction of band-shift of endogenous BAD ([1]; non-transfected HeLa cells): resulted in a new band-shift
induction of band-shift (Ser155 phosphorylation) of HA-BAD S112A/S136A [1]: induced a significant band-shift; also recorded: resulted in the phosphorylation of this site

CCCCCCCCCCCCCC(=O)O[C@@H]1[C@@H](C)[C@@]2(O)[C@@H](C=C(CO)C[C@]3(O)C(=O)C(C)=C[C@@H]23)[C@@H]2C(C)(C)[C@]12OC(C)=O [PMA]
effect on BAD phosphorylation (BAD phosphorylation): promotes BAD phosphorylation

CN[C@@H]1C[C@H]2O[C@@](C)([C@@H]1OC)n1c3ccccc3c3c4c(c5c6ccccc6n2c5c31)C(=O)NC4 [staurosporin]
effect on BAD phosphorylation (BAD phosphorylation): inhibits BAD phosphorylation

ACTH: adrenocorticotropic hormone, GPCR ligand (SYSMEHFRWGKPVGKKRRPVKVYPNGAEDESAEAFPLEF; Corticotropin; UniProt P01189 138-176, looked up)
induction of band-shift (Ser155 phosphorylation) of HA-BAD S112A/S136A [1]: neither TK (FIG. 6(a), lane 3) nor ACTH (FIG. 6(b), lane 5) alone induces a similar band-shift

BAD BH3-P: Synthetic BAD BH3 peptide, residues 143–168 of SEQ ID NO: 2, phosphorylated on Ser155 (AAQRYGRELRRM[pS]DEFEGSFKGLPRP; listed as Mus musculus)
reduction of affinity for Bcl-XL (GST-Bcl-XL; BAD BH3 peptide phosphorylated on Ser155): greater than 100 fold

BAD BH3: Synthetic BAD BH3 peptide, residues 143–168 of SEQ ID NO: 2, unphosphorylated on Ser155 (AAQRYGRELRRMSDEFEGSFKGLPRP; listed as Mus musculus)
affinity of BAD BH3 peptide for Bcl-XL (GST-Bcl-XL; ability to block binding of GST-Bcl-XL to plate-bound BAK BH3 peptide, compared with BAK BH3 control peptide): affinity similar to the BAK BH3 control peptide

BAD S112A: mutant of shorter murine BAD, serine corresponding to Ser112 substituted with alanine; HA- or GST-tagged
band-shift (phosphorylation) of expressed BAD construct in response to L-epinephrine ([1]; HeLa cells): significant band-shift

IGF-1: insulin-like growth factor 1
Ser155 phosphorylation following growth factor stimulation ([1]; HeLa cells): not detected
induction of band-shift of HA-BAD S112A/S136A [2]: induced a band-shift

PDGF
Ser155 phosphorylation following growth factor stimulation ([1]; HeLa cells): not detected
induction of phosphorylation of endogenous BAD on Ser155 ([2]; serum-starved Rat-1 fibroblasts, phospho-S155 antibody): induced the phosphorylation of endogenous BAD on Ser155
induction of band-shift of HA-BAD S112A/S136A [2]: induced a band-shift
